# Data: US4767767A, “2-pyrrolidinylethyl-2-(7-trifluoromethyl-4-quinolyl-aminobenzoate having analgesic, antipyretic and anti-inflammatory activities” (Ferrer Internacional S.A., priority 1982, dated 1988)
# Like-named read-outs stand apart in the source and are kept apart here.
# Tests used:
# [1] = tested on: brewer's yeast test in rat; assay: analgesic activity, brewer's yeast test in rat (Winter et al. 1965); type: in vivo; details: read-out: Analgesic activity ED50
# Description: (§1) The compounds show an outstanding analgesic activity, especially upon oral application versus the brewer's yeast test in rat as described by Winter et al. (J. Pharm. Exp. Ther., 150(1), 165-171, 1965). Also these compounds have shown anti-inflammatory activity especially upon oral application versus the Carrageenin test in rats as described by Winter et al. (Proc. Soc. Exp. Biol. Med., 111, 544-547, 1962). The results for the analgesic evaluation are expressed as ED50 and those for the anti-inflammatory evaluation expressed as the activity rate observed on administering the compounds at a dose of 5 mg/kg.
# Carrageenin test in rats = assay: anti-inflammatory activity, Carrageenin test in rats (Winter et al. 1962); type: in vivo, rat; details: read-out: Antiinflammatory activity
# Description: as §1
# [2] = acute oral toxicity LD50 in mice (Reed-Muench method modified by Pizzi); details: mouse, in vivo; oral administration to mice; as free base
# Description: Moreover, the above compounds have shown a low toxicity which makes them useful in therapy. […] Evaluation was made according to the method by Reed-Muench as modified by Pizzi (Human & Biology, 22(3), 151-190, 1950) by oral administration to mice.
# [3] = brewer's yeast test, rat, oral, as free base
# [4] = Carrageenin test, rat, oral, dose of 5 mg/kg, as free base
SMILES,"ED50 [1, 3] [mg/kg]","inhibition in vivo at 5 mg/kg (Carrageenin test in rats; Rattus norvegicus, po) [%]","ED50 ([1]; Rattus norvegicus, po) [mg/kg]",inhibition in vivo at 5 mg/kg (Carrageenin test in rats; [4]) [%],LD50 [2] [mg/kg]
"CC(=O)Oc1ccccc1C(=O)O [Acetylsalycilic acid, acetylsalicylic acid, reference compound]",73,23.2,–,–,–
"O=C(OCCN1CCN(c2cccc(C(F)(F)F)c2)CC1)c1ccccc1Nc1ccnc2cc(C(F)(F)F)ccc12 [Antrafenine, reference compound]",–,3.6,43,–,–
"O=C(OCCN1CCCC1)c1ccccc1Nc1ccnc2cc(Cl)ccc12 [Example 1, 2-Pyrrolidinylethyl 2-(7-chloro-4-quinolyl)aminobenzoate]",38,–,–,35.6,2000
"O=C(OCCN1CCCC1)c1ccccc1Nc1ccnc2cc(C(F)(F)F)ccc12 [Example 2, 2-Pyrrolidinylethyl 2-(7-trifluoromethyl-4-quinolyl)aminobenzoate]",2.9,–,–,38,630
"O=C(OCCN1CCCCC1)c1ccccc1Nc1ccnc2cc(Cl)ccc12 [Example 3, 2-Piperidinylethyl-2-(7-chloro-4-quinolyl)aminobenzoate]",67,–,–,23.1,> 2000
"O=C(OCCN1CCCCC1)c1ccccc1Nc1ccnc2cc(C(F)(F)F)ccc12 [Example 4, 2-Piperidinylethyl 2-(7-trifluoromethyl-4-quinolyl)aminobenzoate]",3,–,–,23.2,635
"O=C(OCCN1CCCCCC1)c1ccccc1Nc1ccnc2cc(Cl)ccc12 [Example 5, 2-Homopiperidinylethyl 2-(7-chloro-4-quinolyl)aminobenzoate]",5.4,–,–,17.3,–
"O=C(OCCN1CCCCCC1)c1ccccc1Nc1ccnc2cc(C(F)(F)F)ccc12 [Example 6, 2-Homopiperidinylethyl 2-(7-trifluoromethyl-4-quinolyl)aminobenzoate]",7,–,–,27.9,–
"O=C(OCCOCCN1CCCC1)c1ccccc1Nc1ccnc2cc(Cl)ccc12 [Example 7, 2-(2-Pyrrolidineethoxy)ethyl 2-(7-chloro-4-quinolyl)aminobenzoate]",18.5,–,–,5.1,–
"O=C(OCCOCCN1CCCC1)c1ccccc1Nc1ccnc2cc(C(F)(F)F)ccc12 [Example 8, 2-(2-Pyrrolidineethoxy)ethyl 2-(7-trifluoromethyl-4-quinolyl)aminobenzoate]",14.7,–,–,26.2,–
O=C(OCCOCCN1CCCCC1)c1ccccc1Nc1ccnc2cc(Cl)ccc12 [Example 9],21.7,–,–,33.2,–
"O=C(OCCOCCN1CCCCCC1)c1ccccc1Nc1ccnc2cc(Cl)ccc12 [Example 11, 2-(2-Homopiperidineethoxy)ethyl 2-(7-chloro-4-quinolyl)aminobenzoate]",13.3,–,–,21.2,–
"O=C(OCCOCCN1CCCCCC1)c1ccccc1Nc1ccnc2cc(C(F)(F)F)ccc12 [Example 12, 2-(2-Homopiperidineethoxy)ethyl 2-(7-trifluoromethyl-4-quinolyl)aminobenzoate]",6.6,–,–,28.8,–
"O=C(OCC1CCCCO1)c1ccccc1Nc1ccnc2cc(Cl)ccc12 (stereo not shown) [Example 14, 2-Tetrahydropyranylmethyl 2-(7-chloro-4-quinolyl)aminobenzoate]",22,–,–,19.5,–
"O=C(OCC1CCCCO1)c1ccccc1Nc1ccnc2cc(C(F)(F)F)ccc12 (stereo not shown) [Example 15, 2-Tetrahydropyranylmethyl 2-(7-trifluoromethyl-4-quinolyl)aminobenzoate]",9.3,–,–,26.1,–
"O=C(OCOCc1ccccc1)c1ccccc1Nc1ccnc2cc(Cl)ccc12 [Example 16, Benzyloxymethyl 2-(7-chloro-4-quinolyl)aminobenzoate]",6.3,–,–,27.7,> 8000
"O=C(OCOCc1ccccc1)c1ccccc1Nc1ccnc2cc(C(F)(F)F)ccc12 [Example 17, Benzyloxymethyl 2-(7-trifluoromethyl-4-quinolyl)aminobenzoate]",64.5,–,–,30.5,–
"O=C(OCOC(=O)c1ccccc1Nc1ccnc2cc(Cl)ccc12)c1ccccc1 [Example 18, Benzoyloxymethyl 2-(7-chloro-4-quinolyl)aminobenzoate]",82.5,–,–,31,–
"O=C(OCOC(=O)c1ccccc1Nc1ccnc2cc(C(F)(F)F)ccc12)c1ccccc1 [Example 19, Benzoyloxymethyl 2-(7-trifluoromethyl-4-quinolyl)aminobenzoate]",3.8,–,–,30.5,–
"O=C(OC1OC(=O)c2ccccc21)c1ccccc1Nc1ccnc2cc(Cl)ccc12 (stereo not shown) [Example 20, 1(3H)-isobenzofuranone-3-yl 2-(7-chloro-4-quinolyl)aminobenzoate]",71,–,–,26.2,–
"O=C(OC1OC(=O)c2ccccc21)c1ccccc1Nc1ccnc2cc(C(F)(F)F)ccc12 (stereo not shown) [Example 21, 1(3H)-isobenzofuranone-3-yl 2-(7-trifluoromethyl-4-quinolyl)aminobenzoate]",26,–,–,38.4,–
"O=C(OCC(O)CO)c1ccccc1Nc1ccnc2c(C(F)(F)F)cccc12 (stereo not shown) [Floctafenine, reference compound]",2.2,–,–,21.6,–
"O=C(OCC(O)CO)c1ccccc1Nc1ccnc2cc(Cl)ccc12 (stereo not shown) [Glafenine, reference compound]",–,25.6,26.5,–,2100
